Source: patent US4962109A, “Insecticidally and acaricidally active pyrimidine esters and intermediates therefor” (Imperial Chemical Industries PLC, priority 1985, dated 1990)

Experiments:
Type in all cases: in vivo
[1] = system: Spodoptera exigua (lesser army worm - larvae); test: Residual test on lesser army worm larvae (SP), Cotton leaf, mortality; conditions: 48 h, residual, 2 days, read-out: SP grading of mortality
Experimental: (§1) The activity of the Product was determined using a variety of insect pests. The Product was used in the form of liquid preparations containing 500, 250 or 100 parts per million (ppm) by weight of the Product. The preparations were made by dissolving the Product in acetone and diluting the solutions with water containing 0.01% by weight of a wetting agent sold under the trade name "LISSAPOL" NX until the liquid preparations contained the required concentration of the Product. "Lissapol" is a Registered Trade Mark.
(§2) The test procedure adopted with regard to each pest was basically the same and comprised supporting a number of the pests on a medium which was usually a host plant or a foodstuff on which the pests feed, and treating either or both the pests and the medium with the preparations. The mortality of the pests was then assessed at periods usually varying from one to three days after the treatment.
(§3) The results of the tests are given in Table III for each of the Products, at the rate in parts per million given in the second column as a grading of mortality designated as A, B or C wherein A indicates 80-100% mortality or knockdown, B indicates 50-79% mortality or knockdown and C indicates less than 50% mortality or knockdown.
(lesser army worm - larvae)

[2] = system: Nephotettix cincticeps (green leaf hopper - nymphs); test: Contact test on green leaf hopper nymphs (NC), Rice plant, mortality; conditions: 48 h, contact, 2 days, read-out: NC grading of mortality
Experimental: as §1, §2, §3
NC Nephotettix cincticeps

[3] = system: Tetranychus urticae (spider mites - ova); test: Contact test on spider mites - ova (TUe), French bean leaf, mortality; conditions: 144 h, contact, 6 days, read-out: TUe grading of mortality
Experimental: as §1, §2, §3

[4] = system: Diabrotica balteata (rootworm larvae); test: Residual test on rootworm larvae (DB), Filter paper/maize seed, mortality; conditions: 48 h, residual, 2 days, read-out: DB grading of mortality
Experimental: as §1, §2, §3

Myzus persicae (aphids) = test: Contact test on aphids (MP), Chinese Cabbage leaf, mortality; conditions: 72 h, contact, 3 days, read-out: MP grading of mortality
Experimental: as §1, §2, §3

[5] = system: Musca domestica (houseflies - adults); test: Knockdown test on houseflies - adults (MD/KD), Cotton wool/sugar; conditions: 4 hours, read-out: MD/KD grading of knockdown
Experimental: as §1, §2
In the case of the species Musca domestica (housefly), additional tests to determine the knockdown effect of the compounds were performed. PG,163
as §3

[6] = system: Blattella germanica (cockroach nymphs); test: Contact test on cockroach nymphs (BG/C), Plastic pot, mortality; conditions: 48 h, contact, 2 days, read-out: BG/C grading of mortality
Experimental: as §1, §2, §3
BG/C Blattella germanica

[7] = system: Musca domestica (houseflies - adults); test: Contact test on houseflies - adults (MD), Cotton wool/sugar, mortality; conditions: 72 h, contact, 3 days, read-out: MD grading of mortality
Experimental: as §1, §2, §3

[8] = system: Tetranychus urticae (spider mites - adult); test: Contact test on spider mites - adult (TUa), French bean leaf, mortality; conditions: 72 h, contact, 3 days, read-out: TUa grading of mortality
Experimental: as §1, §2, §3

[9] = system: Heliothis virescens (tobacco budworm - larvae); test: Residual test on tobacco budworm larvae (HV), Cotton leaf, mortality; conditions: 48 h, read-out: HV grading of mortality
Experimental: as §1, §2, §3
(tobacco budworm - larvae)

CC(C)c1ncc([C@H](C(=O)O[C@H](C)c2cccc(Oc3ccccc3)n2)C(C)(C)C)cn1 (racemic) [Compound 74, (RS)-1-(6-phenoxypyridin-2-yl)ethyl (RS)-2-[2-(1-methylethyl)pyrimidin-5-yl]-3,3-dimethylbutanoate]
< 50%: mortality at 500 ppm [3] | mortality at 500 ppm [4] | pest or weed control at 500 ppm [5] | mortality at 500 ppm [6]
50 to 79%: mortality at 500 ppm (Myzus persicae (aphids)) | mortality at 500 ppm [7]
80 to 100%: mortality at 500 ppm [1] | mortality at 500 ppm [2] | mortality at 500 ppm [8] | mortality at 500 ppm [9]

COCc1c(F)c(F)c(COC(=O)C(c2cnc(C(C)C)nc2)C(C)(C)C)c(OC)c1F (racemic) [Compound 76, 3,5,6-trifluoro-2-methoxy-4-(methoxymethyl)benzyl (RS)-2-[2-(1-methylethyl)pyrimidin-5-yl]-3,3-dimethylbutanoate]
80 to 100%: mortality at 500 ppm [1] | mortality at 500 ppm [2] | mortality at 500 ppm (Myzus persicae (aphids)) | pest or weed control at 500 ppm [5] | mortality at 500 ppm [8] | mortality at 500 ppm [9]
50 to 79%: mortality at 500 ppm [6] | mortality at 500 ppm [7]
< 50%: mortality at 500 ppm [3] | mortality at 500 ppm [4]

CC(OC(=O)C(c1cnc(C2CC2)nc1)C(C)(C)C)c1cccc(Oc2ccccc2)n1 (racemic) [Compound 78, RS-1-(6-phenoxypyrid-2-yl)ethyl (RS)-2-(2-cyclopropylpyrimidin-5-yl)-3,3-dimethylbutanoate]
80 to 100%: mortality at 500 ppm [1] | mortality at 500 ppm [2] | mortality at 500 ppm [4] | mortality at 500 ppm (Myzus persicae (aphids)) | pest or weed control at 500 ppm [5] | mortality at 500 ppm [8] | mortality at 500 ppm [9]
< 50%: mortality at 500 ppm [7]
50 to 79%: mortality at 500 ppm [3] | mortality at 500 ppm [6]

CC(OC(=O)C(c1cnc(-c2ccccc2)nc1)C(C)(C)C)c1cccc(Oc2ccccc2)n1 (racemic) [Compound 82, (RS)-1-(6-phenoxpyrid-2-yl)ethyl (RS)-2-(2-phenylpyrimidin-5-yl)-3,3-dimethylbutanoate]
80 to 100%: mortality at 1000 ppm ([1]; 1000 ppm) | mortality at 1000 ppm ([2]; 1000 ppm) | mortality at 1000 ppm (Myzus persicae (aphids); 1000 ppm) | pest or weed control at 1000 ppm ([5]; 1000 ppm) | mortality at 1000 ppm ([8]; 1000 ppm) | mortality at 1000 ppm [9]
< 50%: mortality at 1000 ppm ([3]; 1000 ppm) | mortality at 1000 ppm ([4]; 1000 ppm) | mortality at 1000 ppm ([6]; 1000 ppm) | mortality at 1000 ppm ([7]; 1000 ppm)

C#CCc1c(F)c(F)c(COC(=O)C(c2cnc(C(C)(C)C)nc2)C2CC2)c(F)c1F (racemic) [Compound 91, 2,3,5,6-tetrafluoro-4-(prop-2-yn-1-yl)benzyl (RS)-2-[2-(1,1-dimethylethyl)pyrimidin-5-yl]-2-cyclopropylacetate]
80 to 100%: mortality at 500 ppm [1] | mortality at 500 ppm [2] | mortality at 500 ppm [3] | mortality at 500 ppm [4] | mortality at 500 ppm (Myzus persicae (aphids)) | pest or weed control at 500 ppm [5] | mortality at 500 ppm [6] | mortality at 500 ppm [7] | mortality at 500 ppm [8] | mortality at 500 ppm [9]

COCc1c(F)c(F)c(COC(=O)C(c2cnc(C(C)C)nc2)C(C)(C)C)c(F)c1F (racemic) [Compound 131, 2,3,5,6-tetrafluoro-4-(methoxymethyl)benzyl (RS)-2-[2-(1-methylethyl)-pyrimidin-5-yl]-3,3dimethylbutanoate]
80 to 100%: mortality at 500 ppm [1] | mortality at 500 ppm [2] | mortality at 500 ppm [3] | mortality at 500 ppm [4] | mortality at 500 ppm (Myzus persicae (aphids)) | pest or weed control at 500 ppm [5] | mortality at 500 ppm [8]
< 50%: mortality at 500 ppm [6] | mortality at 500 ppm [7] | mortality at 500 ppm [9]

COCc1c(F)c(F)c(COC(=O)C(c2cnc(C3CC3)nc2)C(C)(C)C)c(F)c1F (racemic) [Compound 135, 2,3,5,6-tetrafluoro-4-(methoxymethyl)benzyl (RS)-2-(2-cyclopropylpyrimidin-5-yl)-3,3-dimethylbutanoate]
< 50%: mortality at 500 ppm [6] | mortality at 500 ppm [9]
80 to 100%: mortality at 500 ppm [1] | mortality at 500 ppm [2] | mortality at 500 ppm [3] | mortality at 500 ppm [4] | mortality at 500 ppm (Myzus persicae (aphids)) | pest or weed control at 500 ppm [5] | mortality at 500 ppm [7] | mortality at 500 ppm [8]
